The values that follow come from article PMC8360157, “The chemical compound ‘Heatin’ stimulates hypocotyl elongation and interferes with the Arabidopsis NIT1‐subfamily of nitrilases” (The Plant Journal, 2021).

A word on the IC50: it is the concentration that gives 50% inhibition. A high value points to a need for much substance.

In the test the target is T1, NIT1 (NITRILASE1) (Arabidopsis thaliana, UniProt P32961).
T1 construct: recombinant, 6xHis-tagged, expressed in Escherichia coli, (NH4)2SO4 precipitation, Ni-NTA and PD-10 purified; tag cleavage not mentioned
T1 sequence (P32961 2-346): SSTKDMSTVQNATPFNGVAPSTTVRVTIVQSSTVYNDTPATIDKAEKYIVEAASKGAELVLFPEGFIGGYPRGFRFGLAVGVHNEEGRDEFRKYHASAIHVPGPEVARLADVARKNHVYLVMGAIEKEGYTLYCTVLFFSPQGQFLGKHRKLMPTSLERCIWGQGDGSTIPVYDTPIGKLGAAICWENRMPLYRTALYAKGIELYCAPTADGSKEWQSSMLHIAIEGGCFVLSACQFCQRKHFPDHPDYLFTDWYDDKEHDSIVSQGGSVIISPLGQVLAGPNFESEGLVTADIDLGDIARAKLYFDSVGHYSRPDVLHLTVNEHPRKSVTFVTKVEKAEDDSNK
The experiment in a line: Berthelot colorimetric ammonia assay; IC50 by linear-regression interpolation. Format: biochemical.

As to `CC(Nc1cccc2ccccc12)C(=O)NN=Cc1c(O)ccc2ccccc12` (stereo not shown) [D, N'‐[(2‐hydroxy‐1‐naphthyl)methylene]‐2‐(1‐naphthylamino)propanohydrazide], the half-maximal inhibitory concentration (IC50) is around 20.7 µM.
